From patent US4742064A, “Antiviral carbocyclic analogs of xylofuranosylpurines” (Regents of the University of Minnesota, priority 1985, dated 1988)
“Also recorded” adds a separate entry of the source.

Tests used:
[1] = system: P-388 mouse leukemia cells; experiment: P-388 mouse leukemia cell culture cytotoxicity assay; assay type: cell-based; settings: for IC50: Mus musculus, P388, P-388 leukemia cells in culture, read-out: ED50 (inhibitory concentration, cytotoxicity); for cytotoxicity (in words) / cytotoxicity relative to the corresponding non-aza analogs 9a and 10a (in words): P-388 mouse leukemia cell culture
From the text: *Assay Technique: R. G. Almquist and R. Vince, J. Med. Chem., 16, 1396

[2] = system: HSV-1 (E-377); experiment: cytopathogenic effects (CPE)-inhibition procedure, HSV-1, Vero cells; settings: for VR (virus rating), HSV-1 (E-377): HSV-1 strain E-377, Vero cell monolayers, VR ≥ 1.0 = definite activity, 0.5-0.9 marginal to moderate, < 0.5 usually no significant activity; for antiviral activity against HSV-1 (in words): Table II data
From the text: (§1) The analogs were evalulated by a cytopathogenic effects (CPE)-inhibition procedure. The host cell culture systems employed were pre-grown Vero cell monolayers.
(§2) *VR = virus rating: A measurement of selective antiviral activity which
(§3) takes into account the degree of inhibition of virusinduced cytopathogeni
(§4) effects (CPE) and the degree of cytotoxicity produced by the test
(§5) compound, determined by a modification of the method of Ehrlich et al.
(§6) definite (+) antiviral activity, a VR of 0.5-0.9 indicates marginal to
(§7) moderate (+) antiviral activity, and a VR < 0.5 usually indicates no (-)
significant antiviral activity.

[3] = system: HSV-1; settings: prior literature; cited from earlier work
[4] = system: HSV-2; settings: prior literature; cited from earlier work
[5] = system: HSV-2 (MS); experiment: cytopathogenic effects (CPE)-inhibition procedure, HSV-2, Vero cells; settings: for VR (virus rating), HSV-2 (MS): HSV-2 strain MS, Vero cell monolayers, VR ≥ 1.0 = definite activity, 0.5-0.9 marginal to moderate, < 0.5 usually no significant activity; for antiviral activity against HSV-2 (in words): Table II data
From the text: as §1, §2, §3, §4, §5, §6, §7
significant antiviral activity.

[6] = system: influenza virus; experiment: activity against an influenza virus; assay type: cell-based

Compound | IC50 [1] | VR (virus rating), HSV-1 (E-377) [2] | antiviral activity against HSV-1 (in words) [2] | cytotoxicity (in words) [1] | VR (virus rating), HSV-2 (MS) [5] | further results
Nc1nc(Cl)c2nnn([C@@H]3C[C@H](CO)[C@H](O)[C@H]3O)c2n1 (relative stereo) [Compound 11, (d1)-(1 α,2 β,3 α,5 α)-3-(5-Amino-7-Chloro-3H-1,2,3-triazalo [4,5-d]pyrimidin-3-yl)-5-(hydroxymethyl)-1,2-cyclopentanediol] | 50 µM |  |  |  |  | 
Nc1nc(N)c2nnn([C@@H]3C[C@H](CO)[C@H](O)[C@H]3O)c2n1 (relative stereo) [Compound 14a, (d1)-(1 α,2 β,3 α,5 α)-3-(5,7-Diamino-3H-1,2,3-triazalo[4,5-d]pyrimidin-3-yl)-5-(hydroxymethyl)-1,2-cyclopentanediol] | 5.3 µM | 2.0 | substantial antiviral activity | significant cytotoxicities |  | cytotoxicity relative to the corresponding non-aza analogs 9a and 10a (in words) [1]: more active
Nc1nc(N)c2ncn([C@@H]3C[C@H](CO)[C@@H](O)[C@@H]3O)c2n1 (relative stereo) |  |  |  |  |  | activity against HSV-1 (in words) [3]: exhibited activity; activity against HSV-2 (in words) [4]: inactive
Nc1nc2c(nnn2[C@@H]2C[C@H](CO)[C@H](O)[C@H]2O)c(=O)[nH]1 (relative stereo) [Compound 13a, (d1)-5-Amino-3,6-dihydro-3-[(1 α,2 β,3 α,5 α)-2,3-dihydroxy-4-(hydroxymethyl)cyclopentyl]-7H-1,2,3-triazalo[4,5-d]pyrimidin-7-one] | 1.6 µM | 2.4 | substantial antiviral activity | inhibition at the lowest concentration; also recorded: significant cytotoxicities | 1.3 | antiviral activity against HSV-2 (in words) [5]: active; cytotoxicity relative to the corresponding non-aza analogs 9a and 10a (in words) [1]: more active; activity against an influenza virus (in words) [6]: significant activity
COc1nc(N)nc2c1nnn2[C@@H]1C[C@H](CO)[C@H](O)[C@H]1O (relative stereo) [Compound 12, (d1)-(1 α,2 β,3 α,5 α)-3-(5-Amino-7-methoxy-3H-1,2,3-triazalo [4,5-d]pyrimidin-3-yl)-5-(hydroxymethyl)-1,2-cyclopentanediol] | 63 µM |  |  |  |  | 
Nc1nc2c(ncn2[C@@H]2C[C@H](CO)[C@H](O)[C@H]2O)c(=O)[nH]1 (relative stereo) [Compound 9a, (d1)-2-Amino-1,9-dihydro-9-[(1 α,2 β,3 α,4 α)-2,3-dihydroxy-4-(hydroxymethyl)cyclopentyl]-6H-purin-6-one] | 8.9 µM | 5.6 | substantial antiviral activity | significant cytotoxicities | 3.9 | antiviral activity against HSV-2 (in words) [5]: active; profile of activity in the antiviral assay (in words) ([2]; comparison among analogs of Table II): best profile of activity
Nc1ncnc2c1ncn2[C@@H]1O[C@H](CO)[C@@H](O)[C@@H]1O.O [Ara-A, 9-β-D-arabinofuranosyladenine monohydrate, reference compound] |  | 1.7 |  |  | 1.6 | 
Nc1nc(N)c2ncn([C@@H]3C[C@H](CO)[C@H](O)[C@H]3O)c2n1 (relative stereo) [Compound 10a] | 39 µM | 2.7 | substantial antiviral activity |  |  | 
Nc1nc(Cl)c2ncn([C@@H]3C[C@H](CO)[C@H](O)[C@H]3O)c2n1 (relative stereo) [Compound 8, (d1)-(1 α, 2 β, 3 α, 5 α)-3-(2-Amino-6-chloro-9H-purin-9-yl)-5-(hydroxymethyl)-1,2-cyclopentanediol] | 220 µM |  |  |  |  | 
